SMILES strings stand for the structures.

The test system of this data set is R6/2 Huntington's mice. As to the kind of experiment: Neurological index scoring in R6/2 mice. It is filed as in vivo. How it is done:
The body weights were measured daily.
The following 30 behaviors were evaluated: Head Tremor, Head Twitch, Head Bobbing, Head Searching, Body Tremor, Body Twitch, Tail Tremor, Tail Twitch, Straub Tail, Piloerection, Shallow Respiration, Flattened Body Posture, Swollen Face, Ptosis, Irritability, Seizure, Urine Staining, Lacrimation, Salivation, Limb Splay, Catalepsy, Abnormal Gait, Tip Toe Walking, Slow Careful Movements, Excessive Grooming, Circling, Sniffing, and Chewing. In addition to the above occurrences the chronic observational phase included excessive locomotor activity, loss of startle response, loss of righting reflex, dehydration and tail pinch. The assessment was performed as follows: A score of 0 was assigned for normal features (such as locomotor activity) or for the absence of abnormal features (such as absence of piloerection); a score of 1 was given when mild abnormalities were observed; and a score of 2-3 was given when severe abnormalities were observed. All of these features were scored from simple observation of the mice in their cage, except for the startle, tail pinch and righting reflexes which were direct manipulations. To test the startle reflex, a small hand clicker was used to generate a loud popping noise and the following behaviors were identified during this process: jumping, freezing, and rapid eye blinks. For the righting reflex, each mouse was then removed from its home cage and placed on its back allowing the mouse to correct itself. Tail pinch was tested by gently squeezing the end of the tail with forceps.

With `CN(C)CCCNC(=N)c1ccc(C(=N)NCCCN(C)C)cc1.Cl.Cl.Cl.Cl` [DB213], the “Mean neurological index score of all parameters vs vehicle” value (i.n. 300 mg/kg, day 3, p<0.05) is “significantly higher mean score”. Also, for the setting “i.v. dosing”, the “Neurological index score, differences between treatment groups” value was “no differences in neurological index score”. For the same molecule, under “intranasal dosing”, the Neurological index score result is on record as “increased neurological index score”.

The record behind these values is patent publication US10143666B2, “Small molecule inhibitors targeting CAG-repeat RNA toxicity in polyglutamine diseases” (The Chinese University of Hong Kong, priority 2015, dated 2018).
